Assay results reported in ChEMBL document CHEMBL3627608, “Crystal structures of human RIP2 kinase catalytic domain complexed with ATP-competitive inhibitors: Foundations for understanding inhibitor selectivity” (Bioorg Med Chem, 2015).

Legend:
Homo sapiens = organism: Homo sapiens; test: Inhibition of PKCbeta1 (unknown origin) at 10 uM after 120 mins P33 radiolabeled kinase activity assay
[1] = target: T1, Protein kinase C iota type (Homo sapiens) (UniProt P41743); test: Inhibition of PKCiota (unknown origin) at 10 uM after 120 mins P33 radiolabeled kinase activity assay
T1 sequence (whole entry): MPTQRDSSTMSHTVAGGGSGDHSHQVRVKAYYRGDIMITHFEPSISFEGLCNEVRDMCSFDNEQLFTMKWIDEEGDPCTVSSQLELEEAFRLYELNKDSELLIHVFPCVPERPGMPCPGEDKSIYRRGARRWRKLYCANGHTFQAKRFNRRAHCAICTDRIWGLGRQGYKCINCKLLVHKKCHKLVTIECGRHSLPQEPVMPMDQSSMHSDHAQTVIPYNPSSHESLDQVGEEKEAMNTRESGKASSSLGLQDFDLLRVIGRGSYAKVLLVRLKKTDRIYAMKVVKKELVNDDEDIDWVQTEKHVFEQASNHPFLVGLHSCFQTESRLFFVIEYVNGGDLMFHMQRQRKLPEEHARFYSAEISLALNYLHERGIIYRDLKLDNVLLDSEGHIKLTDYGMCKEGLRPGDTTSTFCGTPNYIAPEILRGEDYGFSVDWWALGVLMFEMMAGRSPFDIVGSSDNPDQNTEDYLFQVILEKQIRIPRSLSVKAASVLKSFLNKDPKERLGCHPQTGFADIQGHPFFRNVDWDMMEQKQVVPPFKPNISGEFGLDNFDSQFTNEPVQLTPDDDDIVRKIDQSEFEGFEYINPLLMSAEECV

[2] = target: T2, Serine/threonine-protein kinase PLK4 (Homo sapiens) (UniProt O00444); test: Inhibition of PLK4 (unknown origin) at 10 uM after 120 mins P33 radiolabeled kinase activity assay
T2 sequence (whole entry): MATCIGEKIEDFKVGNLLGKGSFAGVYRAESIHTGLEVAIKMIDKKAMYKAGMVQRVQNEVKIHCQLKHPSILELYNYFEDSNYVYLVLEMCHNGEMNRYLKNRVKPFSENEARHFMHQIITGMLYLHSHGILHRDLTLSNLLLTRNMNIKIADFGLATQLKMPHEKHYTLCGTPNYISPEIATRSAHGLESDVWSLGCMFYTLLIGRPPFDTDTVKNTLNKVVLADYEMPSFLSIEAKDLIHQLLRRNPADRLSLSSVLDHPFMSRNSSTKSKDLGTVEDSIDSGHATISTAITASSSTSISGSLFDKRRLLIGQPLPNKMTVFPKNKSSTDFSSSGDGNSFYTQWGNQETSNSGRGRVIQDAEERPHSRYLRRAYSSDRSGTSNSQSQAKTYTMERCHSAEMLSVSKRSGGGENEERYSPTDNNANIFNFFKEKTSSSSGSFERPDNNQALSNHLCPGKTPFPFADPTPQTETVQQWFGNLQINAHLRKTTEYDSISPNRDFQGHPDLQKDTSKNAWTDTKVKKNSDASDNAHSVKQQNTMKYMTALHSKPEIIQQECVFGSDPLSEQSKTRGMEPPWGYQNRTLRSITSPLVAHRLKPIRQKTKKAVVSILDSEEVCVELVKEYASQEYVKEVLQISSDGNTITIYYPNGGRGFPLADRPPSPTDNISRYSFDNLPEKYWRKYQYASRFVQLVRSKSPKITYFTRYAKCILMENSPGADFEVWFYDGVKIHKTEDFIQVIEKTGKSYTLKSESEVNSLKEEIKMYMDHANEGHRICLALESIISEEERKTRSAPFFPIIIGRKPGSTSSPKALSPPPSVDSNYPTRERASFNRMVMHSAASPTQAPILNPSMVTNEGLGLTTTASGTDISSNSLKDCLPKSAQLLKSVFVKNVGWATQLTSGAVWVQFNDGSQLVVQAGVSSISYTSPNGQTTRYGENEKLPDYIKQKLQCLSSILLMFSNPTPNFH

[3] = target: T3, Serine/threonine-protein kinase TBK1 (Homo sapiens) (UniProt Q9UHD2); test: Inhibition of TBK1 (unknown origin) at 10 uM after 120 mins P33 radiolabeled kinase activity assay
T3 sequence (whole entry): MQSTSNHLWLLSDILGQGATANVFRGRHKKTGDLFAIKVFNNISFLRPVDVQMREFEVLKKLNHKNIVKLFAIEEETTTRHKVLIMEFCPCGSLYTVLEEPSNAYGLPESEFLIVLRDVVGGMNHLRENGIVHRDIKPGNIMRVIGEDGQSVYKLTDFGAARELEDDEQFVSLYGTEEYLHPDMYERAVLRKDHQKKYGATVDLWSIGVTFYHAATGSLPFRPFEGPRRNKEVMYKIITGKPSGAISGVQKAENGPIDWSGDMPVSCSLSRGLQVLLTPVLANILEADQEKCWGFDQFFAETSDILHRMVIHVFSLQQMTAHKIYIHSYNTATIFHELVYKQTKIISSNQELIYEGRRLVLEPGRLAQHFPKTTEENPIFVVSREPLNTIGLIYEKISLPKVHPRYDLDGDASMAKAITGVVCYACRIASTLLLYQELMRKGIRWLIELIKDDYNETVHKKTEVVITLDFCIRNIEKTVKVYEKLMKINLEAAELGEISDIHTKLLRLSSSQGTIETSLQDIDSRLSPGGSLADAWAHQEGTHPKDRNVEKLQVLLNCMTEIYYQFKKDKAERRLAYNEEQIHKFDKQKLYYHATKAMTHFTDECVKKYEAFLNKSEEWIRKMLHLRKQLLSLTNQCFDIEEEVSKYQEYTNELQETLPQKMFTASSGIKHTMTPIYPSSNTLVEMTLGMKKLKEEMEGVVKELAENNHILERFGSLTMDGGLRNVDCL

[4] = target: Serine/threonine-protein kinase WNK3 (Homo sapiens) (UniProt Q9BYP7); test: Inhibition of WNK3 (unknown origin) at 10 uM after 120 mins P33 radiolabeled kinase activity assay
[5] = target: Death-associated protein kinase 3 (Homo sapiens) (UniProt O43293); test: Inhibition of ZIPK (unknown origin) at 10 uM after 120 mins P33 radiolabeled kinase activity assay
[6] = target: Calcium/calmodulin-dependent protein kinase type II subunit beta (Homo sapiens) (UniProt Q13554); test: Inhibition of CAMK2beta (unknown origin) at 10 uM after 120 mins P33 radiolabeled kinase activity assay
[7] = target: Casein kinase II subunit alpha (Homo sapiens) (UniProt P68400); test: Inhibition of CK2alpha (unknown origin) at 10 uM after 120 mins P33 radiolabeled kinase activity assay
Chain of Casein kinase II subunit alpha (Homo sapiens) (P68400 whole entry, looked up): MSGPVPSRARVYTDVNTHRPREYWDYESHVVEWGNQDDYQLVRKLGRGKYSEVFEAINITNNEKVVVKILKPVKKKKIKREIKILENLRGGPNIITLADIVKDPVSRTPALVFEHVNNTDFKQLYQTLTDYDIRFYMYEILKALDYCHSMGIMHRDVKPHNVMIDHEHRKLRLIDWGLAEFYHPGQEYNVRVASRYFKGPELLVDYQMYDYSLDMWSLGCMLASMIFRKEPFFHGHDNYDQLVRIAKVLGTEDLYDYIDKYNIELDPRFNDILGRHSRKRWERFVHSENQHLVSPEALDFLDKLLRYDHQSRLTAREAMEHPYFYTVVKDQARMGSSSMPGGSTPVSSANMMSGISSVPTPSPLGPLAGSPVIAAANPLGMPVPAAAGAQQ

Chain of Death-associated protein kinase 3 (Homo sapiens) (O43293 whole entry, looked up): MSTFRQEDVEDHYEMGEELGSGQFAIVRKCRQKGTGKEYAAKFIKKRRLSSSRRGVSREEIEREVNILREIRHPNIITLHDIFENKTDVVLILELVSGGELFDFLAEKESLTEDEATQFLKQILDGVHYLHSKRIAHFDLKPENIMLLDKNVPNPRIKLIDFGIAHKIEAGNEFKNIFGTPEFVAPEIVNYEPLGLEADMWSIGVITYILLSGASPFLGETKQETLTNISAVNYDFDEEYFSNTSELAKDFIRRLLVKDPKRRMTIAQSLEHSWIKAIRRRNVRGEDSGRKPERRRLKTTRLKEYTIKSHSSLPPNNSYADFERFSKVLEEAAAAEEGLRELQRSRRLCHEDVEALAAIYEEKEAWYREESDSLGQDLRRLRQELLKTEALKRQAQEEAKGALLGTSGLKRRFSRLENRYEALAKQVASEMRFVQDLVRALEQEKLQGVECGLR
Chain of Serine/threonine-protein kinase WNK3 (Homo sapiens) (Q9BYP7 whole entry): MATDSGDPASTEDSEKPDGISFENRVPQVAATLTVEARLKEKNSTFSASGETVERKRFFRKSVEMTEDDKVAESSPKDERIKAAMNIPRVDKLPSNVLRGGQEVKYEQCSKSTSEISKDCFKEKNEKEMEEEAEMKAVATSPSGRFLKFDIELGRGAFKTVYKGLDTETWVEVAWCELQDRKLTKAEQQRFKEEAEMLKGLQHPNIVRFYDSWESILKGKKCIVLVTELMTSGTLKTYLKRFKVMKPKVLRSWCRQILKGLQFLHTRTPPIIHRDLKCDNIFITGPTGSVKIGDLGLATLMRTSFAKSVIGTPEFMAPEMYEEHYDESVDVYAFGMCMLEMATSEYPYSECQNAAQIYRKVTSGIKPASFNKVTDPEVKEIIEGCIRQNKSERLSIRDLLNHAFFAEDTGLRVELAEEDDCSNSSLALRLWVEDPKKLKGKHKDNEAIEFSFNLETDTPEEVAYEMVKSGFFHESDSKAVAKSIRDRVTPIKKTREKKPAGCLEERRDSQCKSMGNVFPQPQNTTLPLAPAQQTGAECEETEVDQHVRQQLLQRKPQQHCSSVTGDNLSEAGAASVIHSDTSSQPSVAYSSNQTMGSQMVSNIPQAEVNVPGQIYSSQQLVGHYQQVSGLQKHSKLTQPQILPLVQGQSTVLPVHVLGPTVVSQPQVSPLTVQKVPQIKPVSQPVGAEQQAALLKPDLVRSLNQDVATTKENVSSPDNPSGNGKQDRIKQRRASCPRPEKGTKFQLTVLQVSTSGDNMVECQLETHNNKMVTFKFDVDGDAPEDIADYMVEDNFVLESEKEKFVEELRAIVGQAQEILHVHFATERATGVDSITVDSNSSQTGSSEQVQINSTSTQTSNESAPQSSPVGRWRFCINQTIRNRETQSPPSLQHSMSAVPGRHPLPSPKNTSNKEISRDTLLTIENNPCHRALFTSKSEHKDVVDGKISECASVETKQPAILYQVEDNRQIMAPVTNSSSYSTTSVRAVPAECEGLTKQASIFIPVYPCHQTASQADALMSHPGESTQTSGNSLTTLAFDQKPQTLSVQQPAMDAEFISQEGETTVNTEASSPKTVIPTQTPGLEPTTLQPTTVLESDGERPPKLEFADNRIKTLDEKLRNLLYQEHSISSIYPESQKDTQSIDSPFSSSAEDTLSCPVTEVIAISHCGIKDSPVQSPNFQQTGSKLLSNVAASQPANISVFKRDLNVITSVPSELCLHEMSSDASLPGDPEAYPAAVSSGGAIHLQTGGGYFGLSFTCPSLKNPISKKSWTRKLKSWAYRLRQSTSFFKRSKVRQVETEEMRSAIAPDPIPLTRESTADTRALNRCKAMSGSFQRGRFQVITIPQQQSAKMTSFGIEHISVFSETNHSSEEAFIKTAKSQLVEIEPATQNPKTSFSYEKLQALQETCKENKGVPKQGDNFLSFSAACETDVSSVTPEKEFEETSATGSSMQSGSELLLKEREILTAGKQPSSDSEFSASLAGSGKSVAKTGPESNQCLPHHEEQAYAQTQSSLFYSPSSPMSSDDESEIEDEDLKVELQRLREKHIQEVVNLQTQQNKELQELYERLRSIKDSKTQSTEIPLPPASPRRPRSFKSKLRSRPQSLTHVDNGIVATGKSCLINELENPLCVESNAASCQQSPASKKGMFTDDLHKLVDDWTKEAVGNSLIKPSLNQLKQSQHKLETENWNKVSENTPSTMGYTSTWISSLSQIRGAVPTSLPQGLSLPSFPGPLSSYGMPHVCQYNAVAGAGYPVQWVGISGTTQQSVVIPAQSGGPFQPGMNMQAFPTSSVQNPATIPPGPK
Chain of Calcium/calmodulin-dependent protein kinase type II subunit beta (Homo sapiens) (Q13554 whole entry): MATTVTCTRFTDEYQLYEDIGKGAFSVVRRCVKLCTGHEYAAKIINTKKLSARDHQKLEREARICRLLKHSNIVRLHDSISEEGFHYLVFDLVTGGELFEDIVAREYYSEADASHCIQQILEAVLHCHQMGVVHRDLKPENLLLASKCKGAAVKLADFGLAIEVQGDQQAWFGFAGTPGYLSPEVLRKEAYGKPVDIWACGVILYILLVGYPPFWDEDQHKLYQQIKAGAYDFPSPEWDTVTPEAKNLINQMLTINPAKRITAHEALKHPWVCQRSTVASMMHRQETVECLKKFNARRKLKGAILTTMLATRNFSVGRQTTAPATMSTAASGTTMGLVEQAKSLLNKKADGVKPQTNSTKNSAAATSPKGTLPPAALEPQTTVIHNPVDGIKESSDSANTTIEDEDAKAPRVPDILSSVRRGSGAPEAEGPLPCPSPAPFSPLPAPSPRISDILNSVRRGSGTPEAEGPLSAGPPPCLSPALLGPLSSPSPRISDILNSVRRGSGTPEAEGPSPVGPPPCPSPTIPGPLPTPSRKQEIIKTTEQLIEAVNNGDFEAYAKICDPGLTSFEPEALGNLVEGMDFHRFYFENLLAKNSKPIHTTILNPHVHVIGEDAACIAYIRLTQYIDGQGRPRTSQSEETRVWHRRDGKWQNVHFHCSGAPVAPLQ

Compound | inhibition (Homo sapiens) [%] | inhibition [1] [%] | inhibition [2] [%] | inhibition [3] [%] | inhibition [4] [%] | inhibition [5] [%] | inhibition [6] [%] | inhibition [7] [%]
COCCNC(=O)c1ccc2c(c1)nc(-c1cnc(-c3ccc(Cl)cc3)[nH]1)n2CCOC | 3 | 5.69 | 17.3 | 5.84 | -2.44 | 3.1 | 7.54 | 8.6
CS(=O)(=O)c1cccc(Nc2nccc(-c3sc(N4CCOCC4)nc3-c3cccc(NS(=O)(=O)c4c(F)cccc4F)c3)n2)c1 | -3.18 | 9.85 | 97 | 55.4 | 25.9 | 50.7 | 8.74 | 19.7
CC(C)(C)c1cc(NC(=O)Nc2ccc(Oc3ccncc3)cc2)no1 | -4.39 | 4.69 | 19.3 | 4.25 | 1.93 | 35.6 | 13.5 | 20
